We go through four compounds from ChEMBL document CHEMBL1201862, “PubChem BioAssay data set” (2004).

Among the test systems are 786-0; A549; BT-549; HCT-116; HT-29; Hs-578T; IGROV-1; KM12; LOX IMVI; M14; Malme-3M; OVCAR-3; OVCAR-4; RPMI-8226; SNB-75; SR; SW-620; U-251; UACC-62; UO-31.
What all share (assay): NCI anticancer screen, dose series, 48 h

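Results reflect a 48-hour exposure of cells in 96-well plates to compound at five concentrations. At the GI50, growth is halved.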 Active and inactive are the calls of the source. No stated cut-off is given here; in the data, active = GI50 up to about 1.1 µM and inactive = higher.

On to `NC(=O)CO/N=C1/C(=C2/C(=O)Nc3ccccc32)Nc2ccccc21`, for which the GI50 in the test on 786-0 is > 100 µM (inactive); in the test on A549, 1.96 µM (inactive); in the test with BT-549, 12.4 µM (inactive); in the test on HCT-116, 0.755 µM (active); in the test on HT-29, 2.12 µM (inactive); with Hs-578T, > 100 µM (inactive). For the same compound, the GI50 in the test on IGROV-1 was 0.395 µM (active); in the test on KM12 it was 0.247 µM (active); with LOX IMVI, 1.04 µM (active); with M14, 10.4 µM (inactive); in the test on Malme-3M, > 100 µM (inactive); with OVCAR-3, 4.49 µM (inactive). Further, the GI50 in the test on OVCAR-4 was > 100 µM (inactive); with RPMI-8226, 17.9 µM (inactive); with SNB-75, > 100 µM (inactive); in the test with SR, 0.778 µM (active); with SW-620, 4.95 µM (inactive); in the test on U-251, > 100 µM (inactive). Also, the GI50 was 5.87 µM (inactive) in the test on UACC-62 and 1.77 µM (inactive) in the test on UO-31.
As for `O=c1cc(-c2ccccc2)oc2ccc(Oc3nnnn3-c3ccccc3)cc12`, the GI50 with 786-0 is 25.9 µM (inactive); in the test on A549, > 90.8 µM (inactive); in the test on BT-549, 15.3 µM (inactive); in the test on HCT-116 it was > 81.1 µM (inactive); with HT-29, > 100 µM (inactive); in the test on Hs-578T, 28.3 µM (inactive). The GI50 in the test on IGROV-1 is > 75.5 µM (inactive); with KM12, > 100 µM (inactive); with LOX IMVI, > 42.7 µM (inactive); in the test on M14, > 100 µM (inactive); with Malme-3M, > 100 µM (inactive); with OVCAR-3 it was > 100 µM (inactive). Further, the GI50 with OVCAR-4 is > 28.2 µM (inactive); in the test on RPMI-8226, > 100 µM (inactive); with SNB-75, 47.3 µM (inactive); in the test with SR, > 33.1 µM (inactive); in the test on SW-620, > 100 µM (inactive); in the test on U-251, 35 µM (inactive). In addition, the GI50 with UACC-62 was > 48.2 µM (inactive); with UO-31, > 100 µM (inactive).
As for `O=C(c1ccccc1)c1ccc2nc3n(c2c1)C(c1c(Cl)cccc1Cl)SC3` (stereo not given), the GI50 is 3.86 µM (inactive) in the test with 786-0; 4.49 µM (inactive) with A549; 3.54 µM (inactive) with BT-549; 3.26 µM (inactive) with HCT-116; 6.31 µM (inactive) with HT-29; 3.67 µM (inactive) in the test on Hs-578T. The GI50 is 4.48 µM (inactive) with IGROV-1; 2.87 µM (inactive) in the test on KM12; 3.85 µM (inactive) in the test on LOX IMVI; 3.3 µM (inactive) with M14; 2.81 µM (inactive) in the test on Malme-3M; 4.68 µM (inactive) in the test on OVCAR-3. Also, the GI50 with OVCAR-4 was 7.45 µM (inactive); in the test on RPMI-8226, 3.51 µM (inactive); in the test with SNB-75, 2.34 µM (inactive); in the test on SR, 1.43 µM (inactive); with SW-620, 3.53 µM (inactive); in the test with U-251, 5.58 µM (inactive). Besides, the values for the GI50 in the test on UACC-62 and in the test with UO-31 were 4.06 µM (inactive) and 3.17 µM (inactive), respectively.
`CN(C)c1ccc(/C=C2\C[C@H]3[C@@H]4CC=C5C[C@@H](N6CCCC6)CC[C@]5(C)[C@H]4CC[C@]3(C)[C@H]2O)cc1`: the GI50 in the test with 786-0 is 0.659 µM (active); in the test on A549, 1.36 µM (inactive); in the test on BT-549, 3.18 µM (inactive); with HCT-116, 0.897 µM (active); in the test on HT-29 it was 1.1 µM (active); in the test with Hs-578T, 0.883 µM (active). Further, the GI50 with IGROV-1 is 0.989 µM (active); in the test on KM12 it was 2.24 µM (inactive); with LOX IMVI, 0.787 µM (active); in the test on M14, 0.773 µM (active); in the test on Malme-3M, 0.938 µM (active); with OVCAR-3, 1.15 µM (inactive). Besides, the GI50 in the test on OVCAR-4 was 0.796 µM (active); in the test on RPMI-8226 it was 0.973 µM (active); in the test with SNB-75 it was 0.959 µM (active); in the test with SR, 0.773 µM (active); in the test with SW-620, 1.3 µM (inactive); in the test with U-251, 0.925 µM (active). The GI50 was 0.871 µM (active) in the test on UACC-62 and 0.838 µM (active) with UO-31.
